Measured values from patent US20230340137A1, “METHODS, THERAPIES AND USES FOR TREATING CANCER” (PFIZER INC., priority 2020, published 2023).

Assays:
[1] = system: adult patients with advanced multiple myeloma; assay: Phase 1 clinical study NCT03269136, patient response per IMWG criteria; format: in vivo, human
Description: This Example illustrates an ongoing Phase 1 open-label, multicenter clinical study of PF-06863135 (BCMA×CD3 bispecific) as monotherapy and in combination with sasanlimab, lenalidomide or pomalidomide, in adult patients with advanced multiple myeloma who have relapsed from or are refractory to standard therapy. The study has been registered on ClinicalTrials.gov with identifier NCT03269136 and was first posted August 2017. Study results for Part 1 of the trial and additional arms for the study are described in this Example.
Part 1 of the Study is the […] single agent dose escalation arm at the dose levels of 0.1, 0.3, 1, 3, 10, 30, and 50 μg/kg Q1W by intravenous (IV) administration, and at the dose levels of 80, 130, 215, 360, 600 and 1000 μg/kg Q1W by subcutaneous (SC) administration. Upon reaching maximum tolerated dose (MTD)/maximum administered dose (MAD), patients can be treated at a dose level selected from the foregoing dose levels described in this paragraph, and below the MTD/MAD fora Q2W administration, both IV and SC, to further support the recommended phase 2 dose (RP2D) decision. For the study, dose limiting toxicity observation period is set at 21 days for Q1W dosing and 28 days for Q2W dosing. The treatment cycle, aka cycle, for Q1W dosing would be 3 weeks, and for Q2W dosing would be four weeks.
Clinical Outcome of Part 1 of the Study. As of 15 Apr. 2020, a total of 23 patients were enrolled in Part 1 of the study and had been treated with PF-06863135 administered intravenously (IV) at 0.1 (N=2), 0.3 (N=3), 1 (N=2), 3 (N=3), 10 (N=2), 30 (N=5), and 50 (N=6) μg/kg. As of Aug. 21, 2020, a total of 30 patients were enrolled in Part 1 of the study and had been treated with PF-06863135 administered subcutaneously (SC) at 80 (N=6), 130 (N=4), 215 (N=4), 360 (N=4), 600 (N=6) and 1000 (N=6) μg/kg. Safety and efficacy data were available for in 23 IV and 30 SC treated patients per IMWG (International Myeloma Working Group) criteria.
Part 1.1 of the Study is an alternative maintenance dose escalation arm for single agent PF-06863135. If excessive toxicity occurs or the maximum tolerated dose (MTD)/maximum administered dose (MAD) is reached at a dose level that is earlier than desired in Part 1 of the study described above, a priming dose will be administered one week prior to the day 1 cycle 1 administration of the dose (maintenance dose) at this dose level and for all subsequent dose levels in the dose escalation that may be initiated for Part 1.1. The priming dosing will be at a lower dose level than the maintenance dose.
Clinical outcome of Part 1.1 of the Study. As of Feb. 4, 2021, a total of 20 patients were enrolled and treatment in Part 1.1 of the Study, with cohort of 7 patients at a 600 μg/kg priming dose followed by 1000 μg/kg Q1W dosing, and a cohort of 13 patients at a 600 μg/kg priming dose followed by 1000 μg/kg Q2W dosing. The CRS in these two cohorts is described in Table 13. Introducing of priming dose decreased medium duration of CRS by 50%, from 4 days to 2 days. The dose frequency in part 1.1 of the study (Q1W v. Q2W) had no impact on the CRS. Patient response of Part 1.1 of the Study is described in Table 14.

[2] = system: MM.1S-PD-L1 multiple myeloma cells; assay: Subcutaneous MM.1S-PD-L1 multiple myeloma mouse model, tumor volume; format: in vivo
Method: MM.1S multiple myeloma cells were engineered to express PD-L1 and are referred to as MM.1S-PD-L1. Pre-activated and expanded T cells (20×10^6) were administered on Day 19 after MM.1S-PDL1 tumor cell inoculation subcutaneously (SC). BCMAxCD3 bispecific (0.3 or 1 mg/kg) or negative bispecific (1 mg/kg) was administered IV on Day 21 and dosed Q7Dx3. Anti-PD-1 mAb was administered at 5 mg/kg intraperitoneally (IP) twice a week starting on Day 21. Tumor measurements were recorded 2 to 3 times a week using digital calipers. N (at study start) is 5-12 animals per group.

[3] = 600 μg/kg priming, 1000 μg/kg Q1W SC, N = 7
[4] = 600 μg/kg priming, 1000 μg/kg Q2W SC, N = 13

PF-06863135: heterodimeric humanized full-length bispecific antibody, one BCMA binding arm and one CD3 binding arm, modified human IgG2Δa Fc
patients achieving a complete response ([1]; 50 μg/kg IV): 1 patient
OR (percent) ([1]; 215 μg/kg SC, N = 4): (75%)
OR (responders/patients) ([1]; 215 μg/kg SC, N = 4): 3/4
PR (number of patients) ([1]; 215 μg/kg SC, N = 4): 1
sCR (number of patients) ([1]; 215 μg/kg SC, N = 4): 2
OR (percent) ([1]; 360 μg/kg SC, N = 4): (75%)
OR (responders/patients) ([1]; 360 μg/kg SC, N = 4): 3/4
PD (number of patients) ([1]; 360 μg/kg SC, N = 4): 1
VGPR (number of patients) ([1]; 360 μg/kg SC, N = 4): 2
sCR (number of patients) ([1]; 360 μg/kg SC, N = 4): 1
OR (percent) ([1]; 600 μg/kg SC, N = 6): (67%)
OR (responders/patients) ([1]; 600 μg/kg SC, N = 6): 4/6
PD (number of patients) ([1]; 600 μg/kg SC, N = 6): 1
VGPR (number of patients) ([1]; 600 μg/kg SC, N = 6): 2
sCR (number of patients) ([1]; 600 μg/kg SC, N = 6): 2
CR (number of patients) [1, 3]: 2
OR (percent) [1, 3]: (57%)
OR (responders/patients) [1, 3]: 4/7
PR (number of patients) [1, 3]: 1
VGPR (number of patients) [1, 3]: 1
OR (percent) [1, 4]: (54%)
OR (responders/patients) [1, 4]: 7/13
PD (number of patients) [1, 4]: 3
PR (number of patients) [1, 4]: 3
VGPR (number of patients) [1, 4]: 4
CR (number of patients) ([1]; 1000 μg/kg SC, N = 6): 1
OR (percent) ([1]; 1000 μg/kg SC, N = 6): (83%)
OR (responders/patients) ([1]; 1000 μg/kg SC, N = 6): 5/6
PD (number of patients) ([1]; 1000 μg/kg SC, N = 6): 1
PR (number of patients) ([1]; 1000 μg/kg SC, N = 6): 1
VGPR (number of patients) ([1]; 1000 μg/kg SC, N = 6): 3
clinical efficacy ([1]; 600 and 1000 μg/kg SC): seen in most patients
subjects with best response of stable disease ([1]; IV cohorts (0.3-50 μg/kg)): Ten
patients achieving a minimal response ([1]; IV cohorts, at 3 μg/kg and 50 μg/kg IV): 2 patients
Tumor Volume ± SEM ([2]; day 14 post inoculation (before dosing), bispecific 0.3 mg/kg IV Q7Dx3 from Day 21, anti-PD-1 5 mg/kg IP twice a week): 34.4 ± 9.5 mm^3
Tumor Volume ± SEM ([2]; day 14 post inoculation (before dosing), bispecific 1 mg/kg IV Q7Dx3 from Day 21, anti-PD-1 5 mg/kg IP twice a week): 26.4 ± 7.5 mm^3
Tumor Volume ± SEM ([2]; day 18 post inoculation (before dosing), bispecific 0.3 mg/kg IV Q7Dx3 from Day 21, anti-PD-1 5 mg/kg IP twice a week): 91.6 ± 18 mm^3
Tumor Volume ± SEM ([2]; day 18 post inoculation (before dosing), bispecific 1 mg/kg IV Q7Dx3 from Day 21, anti-PD-1 5 mg/kg IP twice a week): 92 ± 17.1 mm^3
Tumor Volume ± SEM ([2]; day 20 post inoculation (before dosing), bispecific 0.3 mg/kg IV Q7Dx3 from Day 21, anti-PD-1 5 mg/kg IP twice a week): 122.5 ± 20.7 mm^3
Tumor Volume ± SEM ([2]; day 20 post inoculation (before dosing), bispecific 1 mg/kg IV Q7Dx3 from Day 21, anti-PD-1 5 mg/kg IP twice a week): 130.7 ± 24.6 mm^3
Tumor Volume ± SEM ([2]; day 25 post inoculation, bispecific 0.3 mg/kg IV Q7Dx3 from Day 21, anti-PD-1 5 mg/kg IP twice a week): 403 ± 59 mm^3
Tumor Volume ± SEM ([2]; day 25 post inoculation, bispecific 1 mg/kg IV Q7Dx3 from Day 21, anti-PD-1 5 mg/kg IP twice a week): 601.1 ± 70 mm^3
Tumor Volume ± SEM ([2]; day 28 post inoculation, bispecific 0.3 mg/kg IV Q7Dx3 from Day 21, anti-PD-1 5 mg/kg IP twice a week): 403.3 ± 67.6 mm^3
Tumor Volume ± SEM ([2]; day 28 post inoculation, bispecific 1 mg/kg IV Q7Dx3 from Day 21, anti-PD-1 5 mg/kg IP twice a week): 482.9 ± 32.6 mm^3
Tumor Volume ± SEM ([2]; day 32 post inoculation, bispecific 0.3 mg/kg IV Q7Dx3 from Day 21, anti-PD-1 5 mg/kg IP twice a week): 603.6 ± 151.6 mm^3
Tumor Volume ± SEM ([2]; day 32 post inoculation, bispecific 1 mg/kg IV Q7Dx3 from Day 21, anti-PD-1 5 mg/kg IP twice a week): 410.5 ± 82.7 mm^3
Tumor Volume ± SEM ([2]; day 35 post inoculation, bispecific 0.3 mg/kg IV Q7Dx3 from Day 21, anti-PD-1 5 mg/kg IP twice a week): 835.1 ± 77.2 mm^3
Tumor Volume ± SEM ([2]; day 35 post inoculation, bispecific 1 mg/kg IV Q7Dx3 from Day 21, anti-PD-1 5 mg/kg IP twice a week): 627.9 ± 111.8 mm^3
Tumor Volume ± SEM ([2]; day 39 post inoculation, bispecific 0.3 mg/kg IV Q7Dx3 from Day 21, anti-PD-1 5 mg/kg IP twice a week): 1569.3 ± 151.8 mm^3
Tumor Volume ± SEM ([2]; day 39 post inoculation, bispecific 1 mg/kg IV Q7Dx3 from Day 21, anti-PD-1 5 mg/kg IP twice a week): 1436.8 ± 276.4 mm^3
